Data: patent US8476302B2, “α-ketoamide derivatives useful endothelial lipase inhibitors” (Janssen Pharmaceutica N.V., priority 2010, dated 2013)
Several values for one entry are separate records, joined by “and”; a condition that tells them apart may be missing. Identical values can stand only once.

How the values were obtained:
[1] = target: T1, human endothelial lipase (EL) (Homo sapiens, UniProt Q9Y5X9); test: Endothelial Lipase Assay, cell surface lipase activity (human); type: cell-based; details: cells expressing human EL, PLA1 substrate 10 μM, fluorescence reaction rate; several values in a cell are repeat determinations
T1 construct: host or cells: cells expressing human endothelial lipase
T1 sequence (Q9Y5X9 21-500): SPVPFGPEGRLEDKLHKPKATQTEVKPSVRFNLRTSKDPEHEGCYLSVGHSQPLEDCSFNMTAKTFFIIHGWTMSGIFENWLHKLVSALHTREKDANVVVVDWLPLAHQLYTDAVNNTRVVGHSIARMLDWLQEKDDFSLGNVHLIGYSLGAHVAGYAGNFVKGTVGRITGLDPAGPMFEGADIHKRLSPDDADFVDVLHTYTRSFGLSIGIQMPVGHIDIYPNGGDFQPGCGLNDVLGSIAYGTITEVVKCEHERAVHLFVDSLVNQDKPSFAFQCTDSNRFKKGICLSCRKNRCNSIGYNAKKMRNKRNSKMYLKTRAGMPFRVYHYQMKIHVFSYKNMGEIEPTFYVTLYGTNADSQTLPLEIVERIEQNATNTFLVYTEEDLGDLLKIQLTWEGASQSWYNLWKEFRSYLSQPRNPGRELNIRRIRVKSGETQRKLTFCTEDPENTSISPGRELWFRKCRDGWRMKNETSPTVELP
Protocol: (§1) Endothelial Lipase Assay (Human/Mouse)
(§2) To assay for cell surface lipase activity, cells expressing human endothelial lipase (EL) or LPL were plated in CellBIND® 384-well plates (Corning, Lowell, Mass.) in 25 μL serum free medium at a density of 2000 cells/well. After 18-24 hours incubation at 37° C., the medium was removed and replaced with 15 μL assay buffer [Hank's Buffered Saline Solution with 25 mM HEPES pH 7.2] and 15 μL PLA1 for a final concentration of 10 μM using a Multidrop reagent dispenser. Fluorescence signal was monitored for 30 min at 37° C. on a Safire II plate reader in kinetic mode (60 cycles, kinetic interval: 30 seconds) with an excitation wavelength of 490 nm and an emission wavelength of 515 nm. Linear regression of the fluorescence intensity collected from 480 to 1500 seconds was used to calculate the reaction rate (the slope) and the slopes were used to calculate IC50 values where appropriate. The amount of BODIPY-labeled product generated was calculated at the 30 min time point as determined from standard curve analysis of purified BODIPY FL C5. In all studies using the inhibitor Ebelactone B, consistent results were obtained when it was dissolved as a stock in DMSO, immediately before use.

Mouse EL = target: T2, Mouse EL (Mus musculus, UniProt Q9WVG5); test: Endothelial Lipase Assay, cell surface lipase activity (mouse); type: cell-based; details: PLA1 substrate 10 μM, fluorescence reaction rate, several values in a cell are repeat determinations
T2 construct: host or cells: not described for mouse EL
T2 sequence (Q9WVG5 21-500): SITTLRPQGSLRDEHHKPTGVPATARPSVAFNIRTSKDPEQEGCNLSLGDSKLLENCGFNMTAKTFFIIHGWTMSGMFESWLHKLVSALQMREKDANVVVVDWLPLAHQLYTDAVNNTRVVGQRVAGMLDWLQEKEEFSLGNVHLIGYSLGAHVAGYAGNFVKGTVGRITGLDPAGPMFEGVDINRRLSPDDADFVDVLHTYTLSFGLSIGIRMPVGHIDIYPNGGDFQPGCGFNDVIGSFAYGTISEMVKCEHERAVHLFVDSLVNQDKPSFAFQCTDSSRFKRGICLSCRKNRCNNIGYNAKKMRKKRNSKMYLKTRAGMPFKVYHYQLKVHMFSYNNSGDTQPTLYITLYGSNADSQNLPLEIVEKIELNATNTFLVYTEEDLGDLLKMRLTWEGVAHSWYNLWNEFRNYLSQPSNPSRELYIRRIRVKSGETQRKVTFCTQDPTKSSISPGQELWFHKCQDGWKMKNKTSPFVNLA
Protocol: as §1, §2

Row | IC50 [1] | IC50 (Mouse EL) | Compound
1 | 952 nM and 836 nM and 690 nM | 1050 nM and 864 nM and 708 nM | O=C(CCCCCCc1ccccc1)C(=O)NCc1nnc(-c2ccccc2)o1 [Compound 1, 2-oxo-8-phenyl-N-((5-phenyl-1,3,4-oxadiazol-2-yl)methyl)octanamide]
2 | 488 nM | 616 nM | O=C(CCCCCCc1ccccc1)C(=O)NCc1nnc(-c2ccc(Cl)cc2)o1 [Compound 2]
3 | 1100 nM | – | COc1cccc(-c2nnc(CNC(=O)C(=O)CCCCCCc3ccccc3)o2)c1 [Compound 3]
4 | 640 nM | – | COc1ccc(-c2nnc(CNC(=O)C(=O)CCCCCCc3ccccc3)o2)cc1 [Compound 4]
5 | 663 nM | – | O=C(CCCCCCc1ccccc1)C(=O)NCc1nnc(-c2ccccc2Cl)o1 [Compound 5]
6 | 2650 nM | – | COc1ccccc1-c1nnc(CNC(=O)C(=O)CCCCCCc2ccccc2)o1 [Compound 6]
7 | 457 nM | – | O=C(CCCCCCc1ccccc1)C(=O)NCc1nnc(-c2ccc3c(c2)OCO3)o1 [Compound 7]
8 | 10400 nM | – | O=C(CCCCCCc1ccccc1)C(=O)NCc1nnc(-c2ccccc2)[nH]1 [Compound 11]
9 | 2100 nM | 1760 nM | O=C(CCCCCCc1ccccc1)C(=O)NCc1nnc(-c2ccccc2F)o1 [Compound 12]
10 | 735 nM | 1020 nM | O=C(CCCCCCc1ccccc1)C(=O)NCc1nnc(-c2ccc(F)cc2)o1 [Compound 15]
11 | 3360 nM | 1880 nM | O=C(CCCCCCc1ccccc1)C(=O)NCc1nnc(-c2ccc(-c3ccccc3)cc2)o1 [Compound 17]
12 | 440 nM | 346 nM | O=C(CCCCCCc1ccccc1)C(=O)NCc1nnc(-c2cccc(Cl)c2)o1 [Compound 18]
13 | 5380 nM | 3050 nM | O=C(CCCCCCc1ccccc1)C(=O)NCc1nnc(-c2ccc3c(=O)n4c(nc3c2)CCC4)o1 [Compound 19]
14 | 490 nM | 552 nM | O=C(CCCCCCc1ccccc1)C(=O)NCc1nnc(-c2ccc(F)c(F)c2)o1 [Compound 20]
15 | 684 nM | 654 nM | O=C(CCCCCCc1ccccc1)C(=O)NCc1nnc(-c2cccc(C(F)(F)F)c2)o1 [Compound 21]
16 | 268 nM and 552 nM | 435 nM and 396 nM | O=C(CCCCCCc1ccccc1)C(=O)NCc1nnc(-c2ccc(C(F)(F)F)cc2)o1 [Compound 22]
17 | 16600 nM | 20700 nM | CN(C)c1ccc(-c2nnc(CNC(=O)C(=O)CCCCCCc3ccccc3)o2)cc1 [Compound 24]
18 | 353 nM and 319 nM and 468 nM | 333 nM and 235 nM and 269 nM | Cc1ccc(-c2nnc(CNC(=O)C(=O)CCCCCCc3ccccc3)o2)cc1 [Compound 25]
19 | 668 nM | 436 nM | O=C(CCCCCCc1ccccc1)C(=O)NCc1nnc(-c2cc(F)cc(F)c2)o1 [Compound 26]
20 | 293 nM and 129 nM | 225 nM and 184 nM | O=C(CCCCCCc1ccccc1)C(=O)NCc1nnc(-c2ccc3ccccc3c2)o1 [Compound 27]
21 | 224 nM | 127 nM | O=C(CCCCCCc1cccc(F)c1)C(=O)NCc1nnc(-c2ccc3ccccc3c2)o1 [Compound 28]
22 | 523 nM | 205 nM | O=C(CCCCCCc1ccc(F)cc1)C(=O)NCc1nnc(-c2ccc3ccccc3c2)o1 [Compound 30]
23 | 141 nM | 120 nM | COc1cccc(CCCCCCC(=O)C(=O)NCc2nnc(-c3ccc4ccccc4c3)o2)c1 [Compound 31]
24 | 213 nM | 165 nM | COc1cccc(CCCCCCC(=O)C(=O)NCc2nnc(-c3ccc(C)cc3)o2)c1 [Compound 32]
25 | 3760 nM | 3350 nM | O=C(CCCCCc1ccccc1)C(=O)NCc1nnc(-c2ccccc2)o1 [Compound 33]
26 | 904 nM | 473 nM | O=C(CCCCCc1ccccc1)C(=O)NCc1nnc(-c2ccc3ccccc3c2)o1 [Compound 34]

Row | IC50 [1] | IC50 (Mouse EL) | Compound
27 | 1130 nM | 994 nM | Cc1ccc(-c2nnc(CNC(=O)C(=O)CCCCCc3ccccc3)o2)cc1 [Compound 35]
28 | 10200 nM | 6600 nM | O=C(CCCCCc1ccc(-c2ccccc2)cc1)C(=O)NCc1nnc(-c2ccc3ccccc3c2)o1 [Compound 36]
29 | 2530 nM | 1470 nM | Cc1ccc(-c2nnc(CNC(=O)C(=O)CCCCCc3ccc(-c4ccccc4)cc3)o2)cc1 [Compound 37]
30 | 613 nM | 475 nM | O=C(CCCCCc1ccc(F)cc1)C(=O)NCc1nnc(-c2ccc3ccccc3c2)o1 [Compound 38]
31 | 643 nM | 772 nM | Cc1ccc(-c2nnc(CNC(=O)C(=O)CCCCCc3ccc(F)cc3)o2)cc1 [Compound 39]
32 | 33300 nM | 33300 nM | COc1cccc(C#CCCCC(=O)C(=O)NCc2nnc(-c3ccccc3)o2)c1 [Compound 40]
33 | 27200 nM | 24100 nM | COc1ccc(C#CCCCC(=O)C(=O)NCc2nnc(-c3ccccc3)o2)cc1 [Compound 41]
34 | 4650 nM | 2730 nM | O=C(CCCCCCc1ccncc1)C(=O)NCc1nnc(-c2ccccc2)o1 [Compound 42]
35 | 2410 nM | 2650 nM | O=C(CCCCC#Cc1ccccc1)C(=O)NCc1nnc(-c2ccccc2)o1 [Compound 43]
36 | 951 nM | 641 nM | N#Cc1ccc(CCCCCCC(=O)C(=O)NCc2nnc(-c3ccccc3)o2)cc1 [Compound 44]
37 | 3470 nM | 2410 nM | N#Cc1ccc(C#CCCCCC(=O)C(=O)NCc2nnc(-c3ccccc3)o2)cc1 [Compound 45]
38 | 8750 nM | 6510 nM | O=C(CCCCCOc1ccccc1)C(=O)NCc1nnc(-c2ccccc2)o1 [Compound 46]
39 | 3190 nM | 3030 nM | Cc1ccc(-c2nnc(CNC(=O)C(=O)CCCCCOc3ccccc3)o2)cc1 [Compound 47]
40 | 1960 nM | 1710 nM | O=C(CCCCCOc1ccccc1)C(=O)NCc1nnc(-c2ccc3ccccc3c2)o1 [Compound 48]
41 | 561 nM | 312 nM | O=C(CCCCCCc1cccc(OC(F)(F)F)c1)C(=O)NCc1nnc(-c2ccccc2)o1 [Compound 49]
42 | 564 nM | 267 nM | O=C(CCCCCCc1ccc2nc(Cl)ccc2c1)C(=O)NCc1nnc(-c2ccccc2)o1 [Compound 50]
43 | 607 nM | 802 nM | O=C(CCCCCCc1ccccc1F)C(=O)NCc1nnc(-c2ccccc2)o1 [Compound 51]
44 | 2610 nM | 1800 nM | O=C(CCCCCOc1ccccc1)C(=O)NCc1nnc(-c2ccc(Oc3ccccc3)cc2)o1 [Compound 52]
45 | 4740 nM | 5910 nM | O=C(CCCCCOc1cccc(F)c1)C(=O)NCc1nnc(-c2ccccc2)o1 [Compound 53]
46 | 916 nM | 802 nM | O=C(CCCCCOc1cccc(F)c1)C(=O)NCc1nnc(-c2ccc3ccccc3c2)o1 [Compound 54]
47 | 340 nM | 384 nM | O=C(CCCCCOc1cccc(F)c1)C(=O)NCc1nnc(-c2ccc(Oc3ccccc3)cc2)o1 [Compound 55]
48 | 3250 nM | 2290 nM | O=C(CCCCCOc1cccc(F)c1)C(=O)NCc1nnc(-c2cccc(Oc3ccccc3)c2)o1 [Compound 56]
49 | 3780 nM | 1100 nM | O=C(CCCCCOc1cccc(F)c1)C(=O)NCc1nnc(-c2ccc(Oc3ccc(Cl)cc3)cc2)o1 [Compound 57]
50 | 33000 nM | – | O=C(CCCCCNc1cccc(F)n1)C(=O)NCc1nnc(-c2ccccc2)o1 [Compound 171]
51 | 5220 nM | – | O=C(CCCCCCc1ccccc1)C(=O)NCc1nnc(-c2cccnc2)o1 [Compound 177]
